Reference: patent US5057493A, “Novel antibiotics R106” (priority 1988, dated 1991)
Starred links: 1 amine or outer side, 2 acyl side, 3 side chain; linkers in the order of their positions; H or OH if unused. Non-standard residues stand in square brackets, D forms with d. Residues, ends and D or L forms follow the SMILES beside them. ξ: configuration not given here. ξNMeVal(3-OH) = CNC(C(=O)O)C(C)(C)O; NMeF = CN[CH](Cc1ccccc1)C(=O)O; X1 = CCC(C)C(O[*:1])C(=O)[*:2]; NMeV = CN[CH](C(=O)O)C(C)C

Key:
[1] = tested on: Paracoccidioides brasiliensis TIMM 0880; test: MIC by agar dilution method, casitone agar; format: cell-based; settings: 27° C. for 7 days
Procedure: (§1) The antibiotics R106 of the present invention are active against various fungi including pathogenic fungi. The minimum inhibitory concentration (MIC) of each antibiotic against various fungi was determined by the agar dilution method using casitone agar medium (2.0% glucose, 0.9% bacto-casitone, 1.0% yeast extract, 0.1% KH2 PO4, 0.1% Na2 HPO4, 1.0% sodium citrate, 2.0% agar: concentrations are all by w/v).
(§2) After culturing at 27° C. for 7 days, each minimum inhibitory concentration was determined.

[2] = tested on: Paracoccidioides brasiliensis TIMM 0878; test: MIC by agar dilution method, casitone agar; format: cell-based; settings: 27° C. for 7 days
Procedure: as §1, §2

[3] = tested on: Cladosporium carrionii TIMM 0337; test: MIC by agar dilution method, casitone agar; format: cell-based; settings: 27° C. for 7 days
[4] = tested on: Cladosporium bantianum TIMM 0343; test: MIC by agar dilution method, casitone agar; format: cell-based; settings: 27° C. for 7 days
[5] = tested on: Aspergillus nidulans TIMM 0112; test: MIC by agar dilution method, casitone agar; format: cell-based; settings: 27° C. for 7 days
[6] = tested on: Candida albicans TIMM 1768; test: Systemic candidiasis model of mice; format: in vivo, ICR strain mice; settings: for Mean Survival Day: 3 hours after infection, then once a day for 4 days, 30 days; for Number of Animal Survived/Number of Animal Tested: 30 days after infection; for T/C: mean survival day treated vs control
Procedure: Candida albicans TIMM 1768 was cultured in Sabouraud-dextrose broth at 37° C. overnight, and the cells were collected and suspended in physiological saline. A cell suspension containing 1×10^6 cells was intravenously injected to ICR strain mice (5 week age, female). After 3 hours, a solution of an antibiotic R106 in TWEEN 80-ethanolphysiological saline (1:9:90, v/v) was subcutaneously, intravenously or orally given to the mice in various concentrations, and then once a day for 4 days the R106 drug solution was given. Mortality was assessed for 30 days after infection to determine the therapeutic effect.
T/C is a value which expresses the mean survival day of the treated group
to the mean survival day of the not treated control group by %.

[7] = tested on: Exophiala werneckii TIMM 1334; test: MIC by agar dilution method, casitone agar; format: cell-based; settings: 27° C. for 7 days
[8] = tested on: Aspergillus flavus TIMM 0058; test: MIC by agar dilution method, casitone agar; format: cell-based; settings: 27° C. for 7 days
[9] = tested on: Aspergillus niger TIMM 0113; test: MIC by agar dilution method, casitone agar; format: cell-based; settings: 27° C. for 7 days
[10] = tested on: Geotrichum candidum TIMM 0694; test: MIC by agar dilution method, casitone agar; format: cell-based; settings: 27° C. for 7 days
[11] = tested on: Trichosporon cutanum TIMM 1318; test: MIC by agar dilution method, casitone agar; format: cell-based; settings: 27° C. for 7 days
[12] = tested on: Microsporum canis TIMM 0760; test: MIC by agar dilution method, casitone agar; format: cell-based; settings: 27° C. for 7 days
[13] = tested on: Trichophyton rubrum TIMM 1216; test: MIC by agar dilution method, casitone agar; format: cell-based; settings: 27° C. for 7 days
[14] = Physicochemical properties of compound 1
Description: Physicochemical properties of compound 1 are as follows.

[15] = tested on: Fonsecaea pedrosoi TIMM 0482; test: MIC by agar dilution method, casitone agar; format: cell-based; settings: 27° C. for 7 days
[16] = tested on: Phialophora verrucosa TIMM 0903; test: MIC by agar dilution method, casitone agar; format: cell-based; settings: 27° C. for 7 days
[17] = 50% lethal dose (LD50) in mice; format: in vivo
Description: All of the antibiotics R106 show low toxicity. The results of 50% lethal dose (LD50) obtained when each of representative compounds of the present invention was given to mice intravenously, intraperitoneally and orally are shown in Table 7.

[18] = tested on: Histoplasma capsulatum TIMM 0713; format: cell-based; settings: 27° C. for 7 days
[19] = tested on: Aspergillus citrinum TIMM 1330; test: MIC by agar dilution method, casitone agar; format: cell-based; settings: 27° C. for 7 days
[20] = tested on: Epidermophyton floccosum TIMM 0431; test: MIC by agar dilution method, casitone agar; format: cell-based; settings: 27° C. for 7 days
[21] = tested on: Histoplasma capsulatum TIMM 0714; format: cell-based; settings: 27° C. for 7 days
[22] = tested on: Aspergillus clavatus TIMM 0056; test: MIC by agar dilution method, casitone agar; format: cell-based; settings: 27° C. for 7 days
[23] = tested on: Aspergillus terreus TIMM 0120; test: MIC by agar dilution method, casitone agar; format: cell-based; settings: 27° C. for 7 days
[24] = tested on: Trichophyton mentagrophytes TIMM 1177; test: MIC by agar dilution method, casitone agar; format: cell-based; settings: 27° C. for 7 days
[25] = tested on: Blastomyces dermatitidis TIMM 0126; test: MIC by agar dilution method, casitone agar; format: cell-based; settings: 27° C. for 7 days
[26] = tested on: Blastomyces dermatitidis TIMM 1690; test: MIC by agar dilution method, casitone agar; format: cell-based; settings: 27° C. for 7 days
[27] = tested on: Aspergillus commune TIMM 1331; test: MIC by agar dilution method, casitone agar; format: cell-based; settings: 27° C. for 7 days

## CCC(C)C1NC(=O)C2CCCN2C(=O)C(Cc2ccccc2)N(C)C(=O)C(Cc2ccccc2)NC(=O)C(C(C)C)N(C)C(=O)C(C(C)CC)OC(=O)C(C(C)(C)O)N(C)C(=O)C(CC(C)C)NC(=O)C(C(C)C)N(C)C1=O (stereo not drawn) [Compound 1] (cyclo([ξNMeVal(3-OH)][X1][NMeV]F[NMeF]PI[NMeV]L); configuration not given here)
[1]
  Minimum Inhibitory Concentration: 0.31 µg/mL
[2]
  Minimum Inhibitory Concentration: 80 µg/mL
[3]
  Minimum Inhibitory Concentration: 1.25 µg/mL
[4]
  Minimum Inhibitory Concentration: 0.63 µg/mL
[5]
  Minimum Inhibitory Concentration: 0.16 µg/mL
[6]; i.v. 0.875 mg/kg
  Mean Survival Day: 14.6 ± 1.9 days
  Number of Animal Survived/Number of Animal Tested: 0/5
  T/C: 119%
[6]; i.v. 1.75 mg/kg
  Mean Survival Day: 18.2 ± 5.0 days
  Number of Animal Survived/Number of Animal Tested: 0/5
  T/C: 149%
[6]; i.v. 3.5 mg/kg
  Mean Survival Day: 19.2 ± 6.3 days
  Number of Animal Survived/Number of Animal Tested: 0/5
  T/C: 157%
[6]; i.v. 7 mg/kg
  Mean Survival Day: 29.0 ± 2.2 days
  Number of Animal Survived/Number of Animal Tested: 4/5
  T/C: 237%
[6]; i.v. 14 mg/kg
  Mean Survival Day: 26.6 ± 5.0 days
  Number of Animal Survived/Number of Animal Tested: 3/5
  T/C: 217%
[6]; p.o. 7 mg/kg
  Mean Survival Day: 14.8 ± 4.8 days
  Number of Animal Survived/Number of Animal Tested: 0/5
  T/C: 121%
[6]; p.o. 14 mg/kg
  Mean Survival Day: 23.2 ± 6.2 days
  Number of Animal Survived/Number of Animal Tested: 0/5
  T/C: 189%
[6]; p.o. 28 mg/kg
  Mean Survival Day: 30.0 ± 0 days
  Number of Animal Survived/Number of Animal Tested: 5/5
  T/C: 245%
[6]; s.c. 1.75 mg/kg
  Mean Survival Day: 14.2 ± 2.9 days
  Number of Animal Survived/Number of Animal Tested: 0/5
  T/C: 116%
[6]; s.c. 3.5 mg/kg
  Mean Survival Day: 18.8 ± 3.5 days
  Number of Animal Survived/Number of Animal Tested: 0/5
  T/C: 153%
[6]; s.c. 7 mg/kg
  Mean Survival Day: 22.4 ± 7.0 days
  Number of Animal Survived/Number of Animal Tested: 2/5
  T/C: 183%
[6]; s.c. 14 mg/kg
  Mean Survival Day: 27.2 ± 6.3 days
  Number of Animal Survived/Number of Animal Tested: 4/5
  T/C: 222%
[7]
  Minimum Inhibitory Concentration: 1.25 µg/mL
[8]
  Minimum Inhibitory Concentration: > 80 µg/mL
[9]
  Minimum Inhibitory Concentration: > 80 µg/mL
[10]
  Minimum Inhibitory Concentration: 0.63 µg/mL
[11]
  Minimum Inhibitory Concentration: > 80 µg/mL
[12]
  Minimum Inhibitory Concentration: > 80 µg/mL
[13]
  Minimum Inhibitory Concentration: > 80 µg/mL
[14]
  Acidic, neutral or basic: neutral substance
[14]; organic solvents
  Solubility in solvent: soluble in chloroform, methanol, ethanol, N,N-dimethylformamide and dimethylsulfoxide
[14]; water
  Solubility in solvent: sparingly soluble in water
[15]
  Minimum Inhibitory Concentration: 0.31 µg/mL
[16]
  Minimum Inhibitory Concentration: > 80 µg/mL
[17]; i.p.
  LD50: > 400 mg/kg
[17]; i.v.
  LD50: > 200 mg/kg
[17]; p.o.
  LD50: > 1000 mg/kg
[18]
  Minimum Inhibitory Concentration: 0.16 µg/mL
[19]
  Minimum Inhibitory Concentration: > 80 µg/mL
[20]
  Minimum Inhibitory Concentration: 2.5 µg/mL
[21]
  Minimum Inhibitory Concentration: 0.08 µg/mL
[22]
  Minimum Inhibitory Concentration: 0.16 µg/mL
[23]
  Minimum Inhibitory Concentration: 5 µg/mL
[24]
  Minimum Inhibitory Concentration: > 80 µg/mL
[25]
  Minimum Inhibitory Concentration: 0.31 µg/mL
[26]
  Minimum Inhibitory Concentration: ≤ 0.04 µg/mL
[27]
  Minimum Inhibitory Concentration: 1.25 µg/mL
